Reference: patent publication US20200296971A1, “COMPOSITIONS AND METHODS FOR DISPERSING BIOFILMS” (Texas State University, priority 2016, published 2020)
Read-outs that look alike come from different tables or passages of the source.

Key:
river water biofilm = details: 0.5% boric acid, 60 seconds, FIG. 2B
Protocol: To visualize biofilm dispersion a water sample from the sampling site was collected. A microscope slide was placed in 30 ml of river water to cultivate a biofilm. The biofilm was then viewed under a dark field microscope and a 0.5% concentration of boric acid was applied and left for 60 seconds. FIG. 2A depicts a photograph of a microscope slide of river water with biofilms.

[1] = system: monoculture biofilm of Chromobacterium violaceum; details: 0.5% boric acid, 2 hours, lightly shaken
Protocol: Test of application: A 0.5% boric acid was injected into a bioreactor containing a monoculture biofilm of Chromobacterium violaceum. The bioreactor was left for 2 hours and lightly shaken.

P. aeruginosa PAO-1 = details: Luria Broth, R2A broth, Davis minimal media with 0, 0.5, 1.0, 1.5% boric acid, FIG. 3
Protocol: (§1) In most experiments, cultures were grown in 96-well polystyrene microtiter plates as this allowed different growth media and replicates to be tested using an automated plate reader. Growth of suspended (planktonic) bacteria could be measured by the turbidity in the individual microtiter plate chambers (referred to as wells). […] To test for dispersion, the planktonic populations and growth media were removed and replaced with water containing various concentrations of the test compound. Dispersion was observed by an increase in turbidity (due to release of bacteria from biofilms) over 20 minutes.

P. aeruginosa biofilms [2] = details: 24 h at 37 C
Protocol: as §1
Experiments were conducted in order to examine the ability of P. aeruginosa biofilms grown on different growth media to be dispersed by boric acid. Here, bacteria were grown for 24 h at 37 C on an orbital shaking plate in a microtiter plate. The media was removed and the adherent P. aeruginosa biofilms were exposed to boric acid, placed in a plate reader and turbidity measured following agitation.

P. aeruginosa biofilms [3] = details: FIG. 4, line B
Text: To further study the mechanisms of boric acid-induced dispersion a collaboration with Dr. Karin Sauer, Binghamton University was initiated. […] FIG. 4 depicts a bar graph summarizing the results of experiments directed towards determining the ability of boric acid to disperse P. aeruginosa biofilms. The line designated as B is boric acid, D represents a positive control for dispersion and E a negative control.

P. aeruginosa biofilms [4] = system: P. aeruginosa biofilms
Protocol: P. aeruginosa was grown as planktonic and biofilm populations in different growth media for 48-120 h. Antimicrobial agents were tested in different boric acid concentrations. Boric acid controls lacked the antimicrobial compounds. Initial planktonic growth and dispersion were measured as described previously. After dispersion, the disinfectant and boric acid compounds were removed, replaced with sterile growth medium, and growth monitored by being placed into the plate reader and monitoring an increase of turbidity over an 18-36 h period.
Experiments were conducted in order to determine the ability of boric acid to enhance the antimicrobial action of betadine (poly(vinyl pyrrolidone) iodine). Betadine is commonly used as a disinfectant in clinical environments and the low concentration used (0.02% (w/v)) was chosen based on previous work as it has partial biofilm effectiveness. P. aeruginosa biofilms were grown for 2 and 5 days suspended above a shaking water bath. […] The media used consisted of artificial urine and artificial urine supplemented with 2 mM glucose (reflecting average urine chemistry in normal and diabetic patients). Davis minimal media (MM) and Luria-Bertani broth (LB) were used as representative minimal and rich media. Different biofilm incubation times were used as it is known that biofilm susceptibility to dispersion can increase with biofilm age.
The testing protocol involved the use of a 96-well microtiter plate and a programmable plate reader (Biotek Instruments). The plate reader was programmed for incubation at 37 C and would agitate the plate for 15 seconds prior to taking an absorbance reading of each well. Microtiter wells were partially filled (200 μl) with sterile growth media, then were inoculated with 2 μl of an overnight bacterial culture suspension. For each media and disinfection combination there were a minimum of two replicates as well as uninoculated wells (media without bacteria) to monitor contamination. The microtiter plates were covered with a lid and the sides sealed with Parafilm™ to prevent contamination. Plates were placed on a rack (above the water level) in a water bath, and incubated with shaking (150 rpm) for 2 and 5 days. Testing consisted of removing a plate from the incubator, placing in the plate reader for 30 minutes (allowing for evaporation of humidity) and reading the turbidity (evidence of planktonic growth). Culture media and planktonic cells were removed from the wells and 200-μl dispersant solution containing a mixture of boric acid and 0.02% (w/v) betadine suspended in PBS. Betadine was absent in the control samples. The microtiter plate was placed in the plate reader for 30 minutes (allowing for evaporation of humidity) and turbidity measurements taken (increased turbidity was evidence of biofilm dispersion). To measure biofilm survival, the plates were removed from the plate reader, the dispersant liquid removed, and replaced with sterile LB growth media. The plates were then placed in the plate reader and growth measured (increased turbidity) over a minimum 18 h period.

[5] = system: Biofilms from a nearby river; details: river biofilm on stone, 5 minutes exposure, tested 0%, 0.25%, 0.5%, 1%, 2%, 3%
Protocol: Biofilms are described on the surface of small (15 mm×15 mm) stone.
Biofilms were exposed to various concentrations of Boric Acid. The concentrations used were 0%, 0.25%, 0.5%, 1%, 2%, 3%.
One stone was used per concentration and was measured and weighed for similarity. Each stone was rinsed with sterile H2O to remove any planktonic (not attached to biofilm) bacteria. Each stone was exposed to a known concentration for a time period of 5 minutes and then removed and placed into a separate vial containing 9 ml of sterile water. The vial with after treatment stone in sterile water was then sonicated for 60 seconds to remove any remaining biofilm to be quantified. Sonication served as a mechanical removal for any remaining biofilm.
Media was then placed in 30 C for 48 hrs and growth was quantified through counting colonies.

other organisms = details: FIG. 3

## OB(O)O [boric acid]
River water biofilm
  biofilm dispersion seen under dark field microscope: dispersed
[1]
  removal of visible biofilm from bioreactor: All visible biofilm was removed
P. aeruginosa PAO-1
  ability to grow in the presence of boric acid: grew in the presence of boric acid
P. aeruginosa biofilms [2]; Davis Minimal Media-grown biofilms
  boric acid concentration at which increased turbidity (evidence of dispersion) was seen: 1.0%
P. aeruginosa biofilms [2]; LB-grown biofilms
  dispersion (increased turbidity): no observable dispersion
P. aeruginosa biofilms [2]; R2A-grown biofilms
  boric acid concentration at which increased turbidity (evidence of dispersion) was seen: 0.5%
P. aeruginosa biofilms [3]
  ability to disperse biofilms in flow cell: verified the ability of boric acid to disperse P. aeruginosa biofilms
P. aeruginosa biofilms [4]; 5-day old PAO-1 biofilms grown in artificial urine, FIGS. 13 and 14, preliminary
  enhancement of betadine activity against older biofilms: does enhance the activity of betadine
P. aeruginosa biofilms [4]; 2 day old biofilms, artificial urine, boric acid without betadine, FIG. 6
  regrowth after treatment: growth did occur
P. aeruginosa biofilms [4]; artificial urine with glucose, FIG. 7
  effect of boric acid on betadine action: no effect
P. aeruginosa biofilms [4]; at the concentrations listed, preliminary results
  boric acid-induced toxicity: low level of boric acid-induced toxicity
P. aeruginosa biofilms [4]; two-day biofilms, Davis Minimal Media and Luria-Bertani broth, FIGS. 9 and 11
  betadine activity against biofilms in the presence of boric acid: enhanced
P. aeruginosa biofilms [4]; two-day biofilms, Davis Minimal Media and Luria-Bertani broth, FIGS. 10 and 12
  killing by boric acid treatment alone: did not kill P. aeruginosa
[5]
  concentration producing the highest percent release of biofilm: 0.5 % (w/v)
Other organisms
  concentration at which bacterial growth began to be inhibited: ≥ 1.5 % (w/v)
